Patent US8993596B2, “4-(azacycloalkyl)benzene-1,3-diol compounds as tyrosinase inhibitors, process for the preparation thereof and use thereof in human medicine and in cosmetics” (Galderma Research & Development, priority 2008, dated 2015)

Legend:
[1] = target: tyrosinase (Mus musculus (Mouse), UniProt P11344); test: Tyrosinase activity inhibition assay (B16F1 cell lysate); format: biochemical, murine; conditions: lysate of B16F1 cells, L-tyrosine substrate, MBTH, reading at 520 nm after 6 hours at 37° C.; read-out: Tyrosine hydroxylase/ Dopa oxidase IC50
tyrosinase, sequence (P11344 19-533): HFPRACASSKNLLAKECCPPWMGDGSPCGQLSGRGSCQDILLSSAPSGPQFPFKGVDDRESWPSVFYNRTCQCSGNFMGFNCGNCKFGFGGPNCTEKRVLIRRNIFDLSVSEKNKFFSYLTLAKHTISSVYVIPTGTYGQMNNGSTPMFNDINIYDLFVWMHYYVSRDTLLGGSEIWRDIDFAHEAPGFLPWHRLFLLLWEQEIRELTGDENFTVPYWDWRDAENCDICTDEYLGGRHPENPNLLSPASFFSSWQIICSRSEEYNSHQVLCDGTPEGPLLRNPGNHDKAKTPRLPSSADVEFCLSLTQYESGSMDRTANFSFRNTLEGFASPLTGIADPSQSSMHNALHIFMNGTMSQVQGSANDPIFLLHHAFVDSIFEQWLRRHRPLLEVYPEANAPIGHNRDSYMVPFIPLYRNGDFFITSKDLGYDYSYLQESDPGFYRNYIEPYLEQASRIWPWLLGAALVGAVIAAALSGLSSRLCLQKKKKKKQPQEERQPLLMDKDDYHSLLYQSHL
Method: The activity of the inhibitors is measured using a lysate of B16F1 cells (murine melanoma line). In the presence of the L-tyrosine substrate, the tyrosinase present in these cells catalyses the hydroxylation of L-tyrosine to give L-DOPA and then the oxidation of the L-DOPA to give dopaquinone. In the presence of MBTH (3-methyl-2-benzothiazolinone hydrazone), the dopaquinone is trapped so as to form a pink complex which absorbs at 520 nm.
The B16F1 cells are cultured in DMEM medium+10% foetal calf serum+10^−9 M α-MSH for 4 days at 37° C. under 7% CO2. They are treated with trypsin, washed in PBS, counted and pelleted. The pellet is taken up at 10^7 cells/ml in lysis buffer (10 mM sodium phosphate, pH 6.8-1% Igepal) and the suspension is treated with ultrasound for 10 seconds. After centrifugation for 30 minutes at 4000 rpm, the supernatant obtained constitutes the cell lysate used as tyrosinase source in the enzymatic assay.
The assays are carried out in duplicate in 384-well plates in a total volume of 50 μl. […]
The plate is incubated at 37° C. and a spectrophotometric reading is carried out at 520 nm after 6 hours of incubation. In order to avoid any possible absorption of the products, the system uses corrected absorbance (absorbance at time 6 h—absorbance at time zero). […]

[2] = test system: MNT1 human melanoma cells; test: Cell toxicity (3H-leucine incorporation) in the melanogenesis assay; format: cell-based; conditions: MNT-1, 24 h at 37° C.
Method: (§1) The inhibition of melanogenesis is measured in MNT1 human melanoma cells according to a protocol adapted from Reigner et al., Cell Mol Biol (1999) 45: 969-980. The assay is based on the concomitant incorporation of 2 radiolabelled tracers: ^14C-thiouracil is incorporated into the neosynthesized melanin and reflects melanogenesis, whereas ^3H-leucine is incorporated into the proteins and reflects cell viability and, consequently, the toxicity of the compounds tested.
(§2) The MNT1 cells are seeded into 96-well plates in the presence of the test compounds and of the radioisotopes. After incubation for 24 h at 37° C., the cells are washed and the amount of the 2 radioisotopes is measured. The test compounds are evaluated in terms of dose-response so as to calculate an IC50 for inhibition of melanogenesis on the basis of the ^14C incorporation which is standardized through the ^3H incorporation. An IC50 for cell toxicity is also calculated on the basis of the ^3H incorporation.

[3] = test system: MNT1 human melanoma cells; test: Melanogenesis inhibition assay (14C-thiouracil incorporation); format: cell-based; conditions: MNT-1, 24 h at 37° C., 14C incorporation standardized through 3H incorporation
Method: as §1, §2

IC50 [1] [nM]	IC50 [3] [nM]	Compound	IC50 [2] [nM]
200	700	O=C([C@@H](O)c1ccccc1)N1CCC(c2ccc(O)cc2O)CC1 [Compound 48, (S)-1-[4-(2,4-dihydroxyphenyl)piperidin-1-yl]-2-hydroxy-2-phenylethanone]	> 999000
–	15000	CCCCc1ccc(O)cc1O [4-Butylresorcinol (Rucinol), 4-Butylresorcinol, reference compound]	55000
150	300	C[C@H](NC(=O)N1CCC(c2ccc(O)cc2O)CC1)c1ccccc1 [Compound 24, 4-(2,4-dihydroxyphenyl)piperidine-1-carboxylic acid ((S)-1-phenylethyl)amide]	> 999000
